These compounds were tested against T1, Caspase-3 (Homo sapiens, UniProt P42574) (assay: Inhibitory activity against recombinant human Caspase-3).
T1 sequence (P42574 whole entry): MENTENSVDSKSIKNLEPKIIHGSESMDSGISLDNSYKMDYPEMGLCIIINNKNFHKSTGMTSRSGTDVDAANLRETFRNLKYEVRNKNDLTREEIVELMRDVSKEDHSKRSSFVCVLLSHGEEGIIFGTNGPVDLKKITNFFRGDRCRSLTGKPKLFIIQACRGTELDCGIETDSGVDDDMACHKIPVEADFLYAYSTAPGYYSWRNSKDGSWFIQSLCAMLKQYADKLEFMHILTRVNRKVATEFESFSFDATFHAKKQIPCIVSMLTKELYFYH

Row | IC50 [µM] | Compound
1 | 0.018 | COc1ccc(Br)cc1CC(=O)N[C@H](C(=O)N[C@@H](CC(=O)O)C(=O)CSCc1ccccc1)C(C)C (stereo in doubt; 29)
2 | 0.018 | COc1ccc(Br)cc1CC(=O)N[C@H](C(=O)N[C@@H](CC(=O)O)C(=O)CSCc1ccccc1)C(C)C (stereo in doubt; 6)
3 | 0.085 | CC(C)[C@H](NC(=O)C(C)(O)c1ccccc1)C(=O)N[C@@H](CC(=O)O)C(=O)CSCc1ccccc1 (some centres not stated)
4 | 0.33 | CC(C)[C@H](NC(=O)[C@H](O)C(C)C)C(=O)N[C@@H](CC(=O)O)C(=O)CSCc1ccccc1
5 | 0.425 | CO[C@H](C(=O)N[C@H](C(=O)N[C@@H](CC(=O)O)C(=O)CSCc1ccccc1)C(C)C)c1ccccc1
6 | 0.467 | CC(C)[C@H](NC(=O)C(C)(C)O)C(=O)N[C@@H](CC(=O)O)C(=O)CSCc1ccccc1

Row | Compound | IC50 [µM]
7 | C#CC[C@@H](C(=O)N[C@H](C(=O)N[C@@H](CC(=O)O)C(=O)CSCc1ccccc1)C(C)C)c1cc(Br)ccc1OC (stereo in doubt; 13) | 0.341
8 | C#CC[C@@H](C(=O)N[C@H](C(=O)N[C@@H](CC(=O)O)C(=O)CSCc1ccccc1)C(C)C)c1cc(Br)ccc1OC (stereo in doubt; 14) | 0.017

Each compound was assayed against Caspase-8 (Homo sapiens, UniProt Q14790) (assay: Inhibitory activity against recombinant human Caspase-8).
Sequence of Caspase-8 (Q14790 217-374 limits assumed): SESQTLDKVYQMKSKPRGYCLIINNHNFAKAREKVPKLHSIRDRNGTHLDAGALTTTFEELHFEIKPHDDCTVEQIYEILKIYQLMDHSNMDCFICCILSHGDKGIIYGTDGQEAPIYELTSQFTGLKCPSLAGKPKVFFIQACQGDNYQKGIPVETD
Sequence of Caspase-8 (Q14790 385-479 limits assumed): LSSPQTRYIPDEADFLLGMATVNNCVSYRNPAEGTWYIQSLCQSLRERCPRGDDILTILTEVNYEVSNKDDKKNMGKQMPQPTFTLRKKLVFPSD

Row | IC50 [µM] | Compound
9 | 1.89 | COc1ccc(Br)cc1CC(=O)N[C@H](C(=O)N[C@@H](CC(=O)O)C(=O)CSCc1ccccc1)C(C)C (stereo in doubt; 29)
10 | 1.89 | COc1ccc(Br)cc1CC(=O)N[C@H](C(=O)N[C@@H](CC(=O)O)C(=O)CSCc1ccccc1)C(C)C (stereo in doubt; 6)
11 | 8 | CC(C)[C@H](NC(=O)C(C)(O)c1ccccc1)C(=O)N[C@@H](CC(=O)O)C(=O)CSCc1ccccc1 (some centres not stated)
12 | 7.27 | CC(C)[C@H](NC(=O)[C@H](O)C(C)C)C(=O)N[C@@H](CC(=O)O)C(=O)CSCc1ccccc1
13 | 22.1 | CC(C)[C@H](NC(=O)Cc1ccccc1)C(=O)N[C@@H](CC(=O)O)C(=O)CSCc1ccccc1
14 | 9.17 | CO[C@H](C(=O)N[C@H](C(=O)N[C@@H](CC(=O)O)C(=O)CSCc1ccccc1)C(C)C)c1ccccc1
15 | 13.8 | CC(C)[C@H](NC(=O)C(C)(C)O)C(=O)N[C@@H](CC(=O)O)C(=O)CSCc1ccccc1

Row | Compound | IC50 [µM]
16 | C#CC[C@@H](C(=O)N[C@H](C(=O)N[C@@H](CC(=O)O)C(=O)CSCc1ccccc1)C(C)C)c1cc(Br)ccc1OC (stereo in doubt; 13) | 4.47
17 | C#CC[C@@H](C(=O)N[C@H](C(=O)N[C@@H](CC(=O)O)C(=O)CSCc1ccccc1)C(C)C)c1cc(Br)ccc1OC (stereo in doubt; 14) | 0.092

What follows are compounds tested against T2, Caspase-7 (Homo sapiens, UniProt P55210) (assay: Inhibitory activity against recombinant human Caspase-7).
T2 sequence (P55210 whole entry): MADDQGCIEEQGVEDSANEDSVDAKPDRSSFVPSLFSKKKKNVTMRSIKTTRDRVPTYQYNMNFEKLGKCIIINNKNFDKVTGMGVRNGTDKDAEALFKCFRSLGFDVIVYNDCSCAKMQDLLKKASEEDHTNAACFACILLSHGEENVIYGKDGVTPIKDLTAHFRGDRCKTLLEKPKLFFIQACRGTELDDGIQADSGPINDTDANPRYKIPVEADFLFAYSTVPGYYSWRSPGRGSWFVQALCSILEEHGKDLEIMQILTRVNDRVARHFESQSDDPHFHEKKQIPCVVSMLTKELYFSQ

Row | IC50 [µM] | Compound
18 | 0.285 | COc1ccc(Br)cc1CC(=O)N[C@H](C(=O)N[C@@H](CC(=O)O)C(=O)CSCc1ccccc1)C(C)C (stereo in doubt; 29)
19 | 0.284 | COc1ccc(Br)cc1CC(=O)N[C@H](C(=O)N[C@@H](CC(=O)O)C(=O)CSCc1ccccc1)C(C)C (stereo in doubt; 6)
20 | 2.76 | CC(C)[C@H](NC(=O)C(C)(O)c1ccccc1)C(=O)N[C@@H](CC(=O)O)C(=O)CSCc1ccccc1 (some centres not stated)
21 | > 10 | CC(C)[C@H](NC(=O)[C@H](O)C(C)C)C(=O)N[C@@H](CC(=O)O)C(=O)CSCc1ccccc1
22 | > 10 | CO[C@H](C(=O)N[C@H](C(=O)N[C@@H](CC(=O)O)C(=O)CSCc1ccccc1)C(C)C)c1ccccc1
23 | 10.9 | CC(C)[C@H](NC(=O)C(C)(C)O)C(=O)N[C@@H](CC(=O)O)C(=O)CSCc1ccccc1

Row | Compound | IC50 [µM]
24 | C#CC[C@@H](C(=O)N[C@H](C(=O)N[C@@H](CC(=O)O)C(=O)CSCc1ccccc1)C(C)C)c1cc(Br)ccc1OC (stereo in doubt; 13) | 3.62
25 | COc1ccc(Br)cc1[C@H](C(=O)N[C@H](C(=O)N[C@@H](CC(=O)O)C(=O)CSCc1ccccc1)C(C)C)C(C)C | > 10
26 | C#CC[C@@H](C(=O)N[C@H](C(=O)N[C@@H](CC(=O)O)C(=O)CSCc1ccccc1)C(C)C)c1cc(Br)ccc1OC (stereo in doubt; 14) | 0.139

These compounds were tested against T3, Caspase-1 (Homo sapiens, UniProt P29466) (assay: Inhibitory activity against recombinant human Caspase-1).
T3 sequence (P29466 whole entry): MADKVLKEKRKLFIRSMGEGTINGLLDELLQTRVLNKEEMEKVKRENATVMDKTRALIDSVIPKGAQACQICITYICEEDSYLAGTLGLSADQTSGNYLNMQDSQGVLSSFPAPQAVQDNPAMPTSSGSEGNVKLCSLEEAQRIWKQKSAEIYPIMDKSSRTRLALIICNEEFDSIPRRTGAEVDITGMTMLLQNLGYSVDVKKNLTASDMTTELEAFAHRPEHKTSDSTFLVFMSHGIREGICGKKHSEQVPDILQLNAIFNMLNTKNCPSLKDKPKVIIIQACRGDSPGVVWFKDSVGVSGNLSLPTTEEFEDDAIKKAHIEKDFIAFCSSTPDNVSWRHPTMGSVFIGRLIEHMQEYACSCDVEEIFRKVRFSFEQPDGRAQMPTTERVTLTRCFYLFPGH

Row | IC50 [µM] | Compound
27 | 3.04 | COc1ccc(Br)cc1CC(=O)N[C@H](C(=O)N[C@@H](CC(=O)O)C(=O)CSCc1ccccc1)C(C)C (stereo in doubt; 6)
28 | 18.9 | CC(C)[C@H](NC(=O)C(C)(O)c1ccccc1)C(=O)N[C@@H](CC(=O)O)C(=O)CSCc1ccccc1 (some centres not stated)
29 | > 10 | CC(C)[C@H](NC(=O)[C@H](O)C(C)C)C(=O)N[C@@H](CC(=O)O)C(=O)CSCc1ccccc1
30 | 21.2 | CC(C)[C@H](NC(=O)Cc1ccccc1)C(=O)N[C@@H](CC(=O)O)C(=O)CSCc1ccccc1
31 | > 10 | CO[C@H](C(=O)N[C@H](C(=O)N[C@@H](CC(=O)O)C(=O)CSCc1ccccc1)C(C)C)c1ccccc1
32 | 18.4 | CC(C)[C@H](NC(=O)C(C)(C)O)C(=O)N[C@@H](CC(=O)O)C(=O)CSCc1ccccc1

Row | Compound | IC50 [µM]
33 | CCC[C@@H](C(=O)N[C@H](C(=O)N[C@@H](CC(=O)O)C(=O)CSCc1ccccc1)C(C)C)c1cc(Br)ccc1OC | > 10
34 | COc1ccc(Br)cc1[C@@H](C)C(=O)N[C@H](C(=O)N[C@@H](CC(=O)O)C(=O)CSCc1ccccc1)C(C)C | > 10
35 | C#CC[C@@H](C(=O)N[C@H](C(=O)N[C@@H](CC(=O)O)C(=O)CSCc1ccccc1)C(C)C)c1cc(Br)ccc1OC (stereo in doubt; 13) | > 10
36 | COc1ccc(Br)cc1[C@H](C(=O)N[C@H](C(=O)N[C@@H](CC(=O)O)C(=O)CSCc1ccccc1)C(C)C)C(C)C | > 10
37 | C#CC[C@@H](C(=O)N[C@H](C(=O)N[C@@H](CC(=O)O)C(=O)CSCc1ccccc1)C(C)C)c1cc(Br)ccc1OC (stereo in doubt; 14) | 1.03

— ChEMBL document CHEMBL1142798, “Lipophilic versus hydrogen-bonding effect in P3 on potency and selectivity of valine aspartyl ketones as caspase 3 inhibitors” (Bioorg Med Chem Lett, 2005)
